# Laboratory results: patent publication US20150157588A1, “Pharmaceutical Composition Comprising Amino-Phenyl-Acetic Acid Octadec-(Z)-9-enyl Ester and Use Thereof for Treating Tumors” (Yeda Research and Development Co., Ltd., priority 2012, published 2015)
# Test system: anti-CD3-activated T cells
# Assay: Microarray gene expression, T cells activated by anti-CD3 antibody
# Assay type: cell-based, human
# Settings: for Fold change CCL7: 208075_s_at; for Fold change INDO: 210029_at; for Fold change RSAD2: 213797_at; for Fold change LYZ /// RFK: 213975_s_at; for Fold change CCL8: 214038_at; for Fold change CXCL5: 215101_s_at; for Fold change ANKRD12: 216563_at; for Fold change CCL2: 216598_s_at; for Fold change HIG2: 218507_at; for Fold change C1orf165: 219670_at; for Fold change IL1F9: 220322_at; for Fold change IL22: 221165_s_at; for Fold change PDE3B: 222330_at
# Method: CD3 positive T cells were extracted from a healthy donor according to a standard protocol, and seeded in T cell medium including RPMI, 10% fetal calf serum, sodium pyruvate, L-Glutamine, and Penicillin/Streptomycin. Following an overnight incubation with medium, the cells were treated by incubating for 2 hours at 37° C. with amino-phenyl-acetic acid octadec-(Z)-9-enyl ester at a concentration of 10 micrograms/ml in a final volume of 10 ml in T-cell medium with or without 0.05% ethanol. After incubation, half the cells from each treatment were centrifuged and 2 ml of Tri-reagent (Sigma) were added to the pellet. The other half of the cells from each treatment were transferred to anti-CD3 antibody coated 24 well plates for an overnight incubation at 37° C. Coating plates with an anti-CD3 antibody was carried out by incubating with 2 micrograms/ml of OKT3 anti-CD3 antibody overnight at 4° C., washing three times with PBS and blocking with filtered 1% Bovine Serum Albumin for 1 hour. After activation with anti-CD3 antibody, cells were centrifuged and 2 ml of Tri-reagent were added to the pellet.
# RNA was extracted from unstimulated cells and from cells activated with anti-CD3 according to standard protocols and used for hybridization with a Human Genome U133A 2.0 (Affymetrix, Catalogue number 900468), according to the manufacturer's instructions. The results of the hybridization were read by a GeneChip scanner 3000 (Affymetrix) and analyzed by QuantArray (GSI lumonics).
# The effects of amino-phenyl-acetic acid octadec-(Z)-9-enyl ester in ethanol solution or in an aqueous vehicle (hereinafter termed “in PBS”) on gene expression in unstimulated T cells and T cells activated by anti-CD3 antibody were compared by microarray analysis.
# [1] = anti-CD3-activated T cells, in ethanol solution vs in PBS
# [2] = anti-CD3-activated T cells, in ethanol solution vs untreated
# [3] = anti-CD3-activated T cells, in PBS vs untreated
structure (smiles),measurement,setting,value
CCCCCCCC/C=C\CCCCCCCCOC(=O)C(N)c1ccccc1 (centres unmarked) [amino-phenyl-acetic acid octadec-(Z)-9-enyl ester],Fold change CCL7,[1],2.01
same,Fold change CCL7,[2],1.991
same,Fold change NTRK1,"208605_s_at, anti-CD3-activated T cells, in ethanol solution vs untreated",2.03
same,Fold change TFPI2,"209277_at, anti-CD3-activated T cells, in ethanol solution vs in PBS",2.53
same,Fold change TFPI2,"209277_at, anti-CD3-activated T cells, in ethanol solution vs untreated",3.32
same,Fold change TFPI2,"209278_s_at, anti-CD3-activated T cells, in ethanol solution vs in PBS",2.99
same,Fold change TFPI2,"209278_s_at, anti-CD3-activated T cells, in ethanol solution vs untreated",3.87
same,Fold change CHI3L1,"209395_at, anti-CD3-activated T cells, in ethanol solution vs in PBS",2.69
same,Fold change CHI3L1,"209395_at, anti-CD3-activated T cells, in ethanol solution vs untreated",3.40
same,Fold change CHI3L1,"209396_s_at, anti-CD3-activated T cells, in ethanol solution vs in PBS",2.15
same,Fold change CHI3L1,"209396_s_at, anti-CD3-activated T cells, in ethanol solution vs untreated",2.58
same,Fold change INDO,[1],2.08
same,Fold change INDO,[2],2.47
same,Fold Change SPAG1,"210117_at, anti-CD3-activated T cells, in ethanol solution vs in PBS",−1.90
same,Fold change IL1A,"210118_s_at, anti-CD3-activated T cells, in ethanol solution vs untreated",2.02
same,Fold change PLA2G4A,"210145_at, anti-CD3-activated T cells, in ethanol solution vs untreated",2.00
same,Fold Change LY9,"210370_s_at, anti-CD3-activated T cells, in ethanol solution vs in PBS",2.25
same,Fold change INHBA,"210511_s_at, anti-CD3-activated T cells, in ethanol solution vs untreated",1.96
same,Fold change FPRL1,"210772_at, anti-CD3-activated T cells, in ethanol solution vs untreated",2.00
same,Fold change PLAUR,"210845_s_at, anti-CD3-activated T cells, in ethanol solution vs in PBS",2.01
same,Fold change PLAUR,"210845_s_at, anti-CD3-activated T cells, in ethanol solution vs untreated",2.02
same,Fold change LYST,"210943_s_at, anti-CD3-activated T cells, in ethanol solution vs untreated",2.45
same,Fold change SERPINA1,"211429_s_at, anti-CD3-activated T cells, in ethanol solution vs untreated",2.06
same,Fold change IL8,"211506_s_at, anti-CD3-activated T cells, in ethanol solution vs untreated",2.69
same,Fold change PLAUR,"211924_s_at, anti-CD3-activated T cells, in ethanol solution vs untreated",1.91
same,Fold Change MCM4,"212141_at, anti-CD3-activated T cells, in ethanol solution vs in PBS",−1.98
same,Fold Change MCM4,"212142_at, anti-CD3-activated T cells, in ethanol solution vs in PBS",−2.80
same,Fold change IL1RN,"212657_s_at, anti-CD3-activated T cells, in ethanol solution vs untreated",1.98
same,Fold change IL1RN,"212659_s_at, anti-CD3-activated T cells, in ethanol solution vs untreated",1.90
same,Fold change RSAD2,[1],3.11
same,Fold change RSAD2,[2],2.28
same,Fold change LYZ /// RFK,[1],2.02
same,Fold change LYZ /// RFK,[2],2.00
same,Fold change CCL8,[1],2.33
same,Fold change CCL8,[2],2.23
same,Fold change CXCL5,[3],1.995
same,Fold change CXCL5,[2],2.31
same,Fold change SOD2,"215223_s_at, anti-CD3-activated T cells, in ethanol solution vs untreated",1.95
same,Fold change SNX9,"215284_at, anti-CD3-activated T cells, in ethanol solution vs untreated",2.44
same,Fold change LYST,"215415_s_at, anti-CD3-activated T cells, in ethanol solution vs untreated",2.09
same,Fold Change LY9,"215967_s_at, anti-CD3-activated T cells, in ethanol solution vs in PBS",2.05
same,Fold Change LY9,"215967_s_at, anti-CD3-activated T cells, in ethanol solution vs untreated",2.2
same,Fold change IL1RN,"216243_s_at, anti-CD3-activated T cells, in ethanol solution vs untreated",1.99
same,Fold change ANKRD12,[3],1.94
same,Fold change ANKRD12,[2],2.48
same,Fold change probeset 216575_at,[1],2.69
same,Fold change probeset 216575_at,[2],2.31
same,Fold change CCL2,[1],5.27
same,Fold change CCL2,[2],5.00
same,Fold change SLC7A11,"217678_at, anti-CD3-activated T cells, in ethanol solution vs untreated",1.92
same,Fold Change TNS3,"217853_at, anti-CD3-activated T cells, in ethanol solution vs in PBS",2.00
same,Fold change FLJ20273,"218035_s_at, anti-CD3-activated T cells, in ethanol solution vs untreated",2.17
same,Fold change HIG2,[1],−2.31
same,Fold change HIG2,[2],−2.17
same,Fold Change DTL,"218585_s_at, anti-CD3-activated T cells, in ethanol solution vs in PBS",−1.93
same,Fold change ANKRD11,"219437_s_at, anti-CD3-activated T cells, in ethanol solution vs untreated",2.84
same,Fold change C1orf165,[1],−2.22
same,Fold change C1orf165,[2],−2.29
same,Fold change IL1F9,[1],2.74
same,Fold change IL1F9,[2],3.10
same,Fold change MCM10,"220651_s_at, anti-CD3-activated T cells, in ethanol solution vs untreated",−2.05
same,Fold change IL22,[1],−3.03
same,Fold change IL22,[2],−2.63
same,Fold Change BNIP3L,"221478_at, anti-CD3-activated T cells, in ethanol solution vs in PBS",−2.45
same,Fold Change BNIP3L,"221478_at, anti-CD3-activated T cells, in ethanol solution vs untreated",−2.28
same,Fold Change BNIP3L,"221479_s_at, anti-CD3-activated T cells, in ethanol solution vs in PBS",−2.00
same,Fold Change GINS2,"221521_s_at, anti-CD3-activated T cells, in ethanol solution vs in PBS",−1.99
same,Fold change GRSF1,"221917_s_at, anti-CD3-activated T cells, in PBS vs untreated",1.92
same,Fold change PDE3B,[1],1.99
same,Fold change PDE3B,[2],1.97
same,down-regulated genes,"activated T cells, in PBS vs untreated",no down-regulated genes
